Results taken from paper PMC11864979, “First-in-class ultralong-target-residence-time p38α inhibitors as a mitosis-targeted therapy for colorectal cancer” (Nature Cancer, 2025).
Read-outs that look alike come from different tables or passages of the source.

What was measured:
Assay in all cases: selectivity profiling in a panel of 340 wild-type kinases (Reaction Biology Europe)
Format in all cases: binding
340 wild-type kinases [1] = target: T1, 340 wild-type kinases (Homo sapiens, UniProt O96013)
T1 construct: purchased Reaction Biology Europe

340 wild-type kinases [2] = target: T2, 340 wild-type kinases (Homo sapiens, UniProt O43318)
T2 construct: purchased Reaction Biology Europe
T2 sequence (O43318 1-606): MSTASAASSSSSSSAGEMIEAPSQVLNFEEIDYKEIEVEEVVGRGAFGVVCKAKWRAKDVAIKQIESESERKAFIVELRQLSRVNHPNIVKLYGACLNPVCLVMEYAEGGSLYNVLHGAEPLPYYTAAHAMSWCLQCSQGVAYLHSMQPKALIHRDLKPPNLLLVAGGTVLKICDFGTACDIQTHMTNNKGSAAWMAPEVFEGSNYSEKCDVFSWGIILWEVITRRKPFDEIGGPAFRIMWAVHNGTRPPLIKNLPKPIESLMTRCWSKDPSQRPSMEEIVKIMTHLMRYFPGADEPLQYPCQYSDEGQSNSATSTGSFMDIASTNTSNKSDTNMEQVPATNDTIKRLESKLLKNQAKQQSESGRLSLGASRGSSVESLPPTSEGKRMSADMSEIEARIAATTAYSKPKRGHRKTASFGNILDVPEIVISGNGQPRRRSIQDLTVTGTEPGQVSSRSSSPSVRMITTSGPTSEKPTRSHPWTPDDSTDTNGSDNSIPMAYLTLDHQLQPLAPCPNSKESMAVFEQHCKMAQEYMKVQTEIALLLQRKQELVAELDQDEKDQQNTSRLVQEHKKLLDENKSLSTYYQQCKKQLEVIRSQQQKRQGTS

340 wild-type kinases [3] = target: T3, 340 wild-type kinases (Homo sapiens, UniProt Q06418)
T3 construct: purchased Reaction Biology Europe
T3 sequence (Q06418 41-890): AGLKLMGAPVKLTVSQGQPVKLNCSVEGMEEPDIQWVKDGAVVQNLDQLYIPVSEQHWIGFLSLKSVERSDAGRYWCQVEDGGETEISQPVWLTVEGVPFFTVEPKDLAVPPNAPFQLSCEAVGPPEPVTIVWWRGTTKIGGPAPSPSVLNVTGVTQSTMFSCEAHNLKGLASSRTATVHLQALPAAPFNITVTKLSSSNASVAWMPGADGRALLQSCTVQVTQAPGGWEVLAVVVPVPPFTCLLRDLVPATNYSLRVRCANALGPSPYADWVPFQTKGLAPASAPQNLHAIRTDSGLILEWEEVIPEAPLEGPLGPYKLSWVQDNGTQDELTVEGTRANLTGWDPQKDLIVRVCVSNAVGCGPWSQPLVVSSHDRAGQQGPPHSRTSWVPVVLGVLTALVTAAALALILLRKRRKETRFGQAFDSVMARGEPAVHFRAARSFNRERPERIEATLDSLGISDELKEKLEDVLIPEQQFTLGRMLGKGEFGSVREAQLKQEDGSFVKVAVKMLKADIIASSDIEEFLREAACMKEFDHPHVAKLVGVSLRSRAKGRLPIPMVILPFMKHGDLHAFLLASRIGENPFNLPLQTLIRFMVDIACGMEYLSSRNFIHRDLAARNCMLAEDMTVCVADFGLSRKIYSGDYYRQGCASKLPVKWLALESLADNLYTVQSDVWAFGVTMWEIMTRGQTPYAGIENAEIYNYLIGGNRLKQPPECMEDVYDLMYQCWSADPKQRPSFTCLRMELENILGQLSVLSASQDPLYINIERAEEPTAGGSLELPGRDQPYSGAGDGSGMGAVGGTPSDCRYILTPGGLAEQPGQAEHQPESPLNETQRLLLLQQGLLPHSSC

340 wild-type kinases [4] = target: T4, 340 wild-type kinases (Homo sapiens, UniProt Q99759)
T4 construct: purchased Reaction Biology Europe
T4 sequence (Q99759 1-626): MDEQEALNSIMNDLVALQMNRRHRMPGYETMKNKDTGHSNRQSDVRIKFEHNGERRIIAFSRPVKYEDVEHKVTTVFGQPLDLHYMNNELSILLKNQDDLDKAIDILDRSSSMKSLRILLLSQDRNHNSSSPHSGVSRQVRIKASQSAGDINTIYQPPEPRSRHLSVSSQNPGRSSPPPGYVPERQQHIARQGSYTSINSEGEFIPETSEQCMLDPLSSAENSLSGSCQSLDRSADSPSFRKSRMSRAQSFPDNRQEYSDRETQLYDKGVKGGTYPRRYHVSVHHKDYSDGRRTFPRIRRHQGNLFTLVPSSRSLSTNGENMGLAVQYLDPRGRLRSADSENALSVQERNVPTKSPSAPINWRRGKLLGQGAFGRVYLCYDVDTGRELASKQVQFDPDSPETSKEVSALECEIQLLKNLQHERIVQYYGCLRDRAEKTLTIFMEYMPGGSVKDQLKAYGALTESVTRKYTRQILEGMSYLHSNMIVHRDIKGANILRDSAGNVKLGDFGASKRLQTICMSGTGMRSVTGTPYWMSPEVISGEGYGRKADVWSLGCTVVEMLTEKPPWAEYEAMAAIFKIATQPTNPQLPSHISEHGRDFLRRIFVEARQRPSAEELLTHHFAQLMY

340 wild-type kinases [5] = target: T5, 340 wild-type kinases (Homo sapiens, UniProt P30291)
T5 construct: purchased Reaction Biology Europe
T5 sequence (P30291 whole entry): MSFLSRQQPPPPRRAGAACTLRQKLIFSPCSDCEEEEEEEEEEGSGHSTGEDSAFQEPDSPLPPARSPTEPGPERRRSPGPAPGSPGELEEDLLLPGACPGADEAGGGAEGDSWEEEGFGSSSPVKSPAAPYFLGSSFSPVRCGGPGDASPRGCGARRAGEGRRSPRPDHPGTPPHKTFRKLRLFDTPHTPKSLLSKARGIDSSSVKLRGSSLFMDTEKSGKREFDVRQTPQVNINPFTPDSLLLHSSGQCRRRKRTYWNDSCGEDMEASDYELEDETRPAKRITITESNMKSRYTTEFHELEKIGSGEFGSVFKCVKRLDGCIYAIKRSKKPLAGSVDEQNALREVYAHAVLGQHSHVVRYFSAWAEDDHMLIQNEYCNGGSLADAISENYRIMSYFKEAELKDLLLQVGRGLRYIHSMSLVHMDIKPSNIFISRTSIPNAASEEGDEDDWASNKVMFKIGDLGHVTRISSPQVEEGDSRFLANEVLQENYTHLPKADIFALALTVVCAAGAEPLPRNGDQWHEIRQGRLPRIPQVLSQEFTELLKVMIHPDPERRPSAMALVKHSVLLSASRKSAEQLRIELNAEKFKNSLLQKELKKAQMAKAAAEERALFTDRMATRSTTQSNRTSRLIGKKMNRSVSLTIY

T1 sequence (O96013 whole entry): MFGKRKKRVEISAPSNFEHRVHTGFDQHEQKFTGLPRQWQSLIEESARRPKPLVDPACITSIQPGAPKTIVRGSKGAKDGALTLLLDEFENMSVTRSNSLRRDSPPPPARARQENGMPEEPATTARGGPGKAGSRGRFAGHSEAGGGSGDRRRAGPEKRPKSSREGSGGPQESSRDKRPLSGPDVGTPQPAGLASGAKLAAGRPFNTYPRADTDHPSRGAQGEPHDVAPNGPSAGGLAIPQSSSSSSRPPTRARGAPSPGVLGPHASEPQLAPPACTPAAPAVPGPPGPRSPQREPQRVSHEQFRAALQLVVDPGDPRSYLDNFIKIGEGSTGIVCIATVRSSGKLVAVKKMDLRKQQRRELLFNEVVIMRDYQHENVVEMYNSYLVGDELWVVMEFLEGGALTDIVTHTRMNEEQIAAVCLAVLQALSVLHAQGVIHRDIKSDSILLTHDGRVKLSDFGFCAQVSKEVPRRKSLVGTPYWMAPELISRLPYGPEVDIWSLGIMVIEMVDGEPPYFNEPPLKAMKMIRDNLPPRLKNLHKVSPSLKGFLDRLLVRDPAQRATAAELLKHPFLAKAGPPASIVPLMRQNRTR

## CNC(=O)c1ccc2c(c1)C(=O)c1ccc(Nc3ccc(F)c(NC(=O)C4CC4)c3)cc1CC2 [Compound 2015]
340 wild-type kinases [1]; 0.2 µM 2015, read-out: PAK4 residual activity
  remaining activity at 0.2 µM: 92.5%
340 wild-type kinases [1]; 1 µM 2015, read-out: PAK4 residual activity
  remaining activity at 1 µM: 85.8%
340 wild-type kinases [1]; PAK4, 0.2 µM, read-out: residual activity
  remaining activity at 0.2 µM: 92.5%
340 wild-type kinases [1]; PAK4, 1 µM, read-out: residual activity
  remaining activity at 1 µM: 85.8%
340 wild-type kinases [2]; 0.2 µM 2015, read-out: MAP3K7/MAP3K7IP1 residual activity
  remaining activity at 0.2 µM: 96.8%
340 wild-type kinases [2]; 1 µM 2015, read-out: MAP3K7/MAP3K7IP1 residual activity
  remaining activity at 1 µM: 93.9%
340 wild-type kinases [2]; MAP3K7/MAP3K7IP1, 1 µM, read-out: residual activity
  remaining activity at 1 µM: 93.9%
340 wild-type kinases [3]; 0.2 µM 2015, read-out: TYRO3 residual activity
  remaining activity at 0.2 µM: 93.9%
340 wild-type kinases [3]; 1 µM 2015, read-out: TYRO3 residual activity
  remaining activity at 1 µM: 86.6%
340 wild-type kinases [3]; TYRO3, 0.2 µM, read-out: residual activity
  remaining activity at 0.2 µM: 94%
340 wild-type kinases [3]; TYRO3, 1 µM, read-out: residual activity
  remaining activity at 1 µM: 86.6%
340 wild-type kinases [4]; 0.2 µM 2015, read-out: MEKK3 residual activity
  remaining activity at 0.2 µM: 105%
340 wild-type kinases [4]; 1 µM 2015, read-out: MEKK3 residual activity
  remaining activity at 1 µM: 101%
340 wild-type kinases [4]; MEKK3, 0.2 µM, read-out: residual activity
  remaining activity at 0.2 µM: 105%
340 wild-type kinases [4]; MEKK3, 1 µM, read-out: residual activity
  remaining activity at 1 µM: 101%
340 wild-type kinases [5]; 0.2 µM 2015, read-out: WEE1 residual activity
  remaining activity at 0.2 µM: 91.7%
340 wild-type kinases [5]; 1 µM 2015, read-out: WEE1 residual activity
  remaining activity at 1 µM: 83.3%
340 wild-type kinases [5]; WEE1, 0.2 µM, read-out: residual activity
  remaining activity at 0.2 µM: 91.7%
340 wild-type kinases [5]; WEE1, 1 µM, read-out: residual activity
  remaining activity at 1 µM: 83.3%
